Earlier results on four compounds are cited in US10300299B2, “Advanced methods and systems for treating cell proliferation disorders” (priority 2008, dated 2019).

One data set relates to rapidly dividing tissue. As to conditions: in vivo.
Experiment in data set [1]: not given
The source holds these as a separate data set.

Experiment in data set [2]: not given
This is another data set of the same source.

For `Oc1cccc(-c2c3nc(c(-c4cccc(O)c4)c4ccc([nH]4)c(-c4cccc(O)c4)c4nc(c(-c5cccc(O)c5)c5ccc2[nH]5)CC4)C=C3)c1` [Foscan, Tetra (m-hydroxyphenyl) chlorin], the “duration of skin photosensitivity” value is reported as “approximately 2 weeks”. Besides, the Length of photosensitization (Table 3, known photosensitizers) is 2 weeks.

As to `C/C1=C2/[N-][C@H]([C@H](CC(N)=O)[C@@]2(C)CCC(=O)NC[C@@H](C)OP(=O)([O-])O[C@H]2[C@@H](O)[C@@H](n3cnc4cc(C)c(C)cc43)O[C@@H]2CO)[C@]2(C)N=C(/C(C)=C3N=C(/C=C4N=C1[C@@H](CCC(N)=O)C\4(C)C)[C@@H](CCC(N)=O)[C@]\3(C)CC(N)=O)[C@@H](CCC(N)=O)[C@]2(C)CC(N)=O.[CH3-].[Co+3]` [methylcobalamin], the “uptake in rapidly dividing tissue” value in the data set with rapidly dividing tissue was “increased uptake”.

Turning to Cobalt-57-cyanocobalamin, the “uptake in rapidly dividing tissue” value in the data set on rapidly dividing tissue is given as “increased uptake”.

Consider Vitamin B12, for which the water solubility result in data set [1] was “water soluble”. Besides, in data set [2] (in excess), the excretion entry is “excreted by gloinerular filtration”. Further, the toxicity entry in data set [2] (in vivo) is “no known toxicity”.
